Test results from PubChem BioAssay AID2060495 (Molecular Pharmacology Branch, DTP, NCI, 2025).

System: 521955-158-R2-J5-PDC complex spheroid viability
Assay: Anticancer human tumor 521955-158-R2-J5-PDC patient-derived pancreatic carcinoma cell line growth inhibition [GQUAD]
Conditions: for IC50: curve of first compound; for viability, T/C: stronger effect = lower value
Outline: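 Multi-cell-type spheroids of tumor cells with HUVEC and mesenchymal stem cells, treated with drug combinations. Concentrations descend in half-log steps from near clinical Cmax, or from 10 microM where Cmax is unknown; viability read-out.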

[1] = second compound 0.0316 µM, first compound 0.0316 µM
[2] = second compound 0.0316 µM, first compound 0.1 µM
[3] = second compound 0.0316 µM, first compound 0.316 µM
[4] = second compound 0.0316 µM, first compound 1 µM
[5] = second compound 0.0316 µM, first compound 3.16 µM
[6] = second compound 0.0316 µM, first compound 10 µM
[7] = second compound 0.1 µM, first compound 0.0316 µM
[8] = second compound 0.1 µM, first compound 0.1 µM
[9] = second compound 0.1 µM, first compound 0.316 µM
[10] = second compound 0.1 µM, first compound 1 µM
[11] = second compound 0.1 µM, first compound 3.16 µM
[12] = second compound 0.1 µM, first compound 10 µM
[13] = second compound 0.316 µM, first compound 0.0316 µM
[14] = second compound 0.316 µM, first compound 0.1 µM
[15] = second compound 0.316 µM, first compound 0.316 µM
[16] = second compound 0.316 µM, first compound 1 µM
[17] = second compound 0.316 µM, first compound 3.16 µM
[18] = second compound 0.316 µM, first compound 10 µM
[19] = second compound 1 µM, first compound 0.0316 µM
[20] = second compound 1 µM, first compound 0.1 µM
[21] = second compound 1 µM, first compound 0.316 µM
[22] = second compound 1 µM, first compound 1 µM
[23] = second compound 1 µM, first compound 3.16 µM
[24] = second compound 1 µM, first compound 10 µM
[25] = second compound 3.16 µM, first compound 0.0316 µM
[26] = second compound 3.16 µM, first compound 0.1 µM
[27] = second compound 3.16 µM, first compound 0.316 µM
[28] = second compound 3.16 µM, first compound 1 µM
[29] = second compound 3.16 µM, first compound 3.16 µM
[30] = second compound 3.16 µM, first compound 10 µM
[31] = second compound 10 µM, first compound 0.0316 µM
[32] = second compound 10 µM, first compound 0.1 µM
[33] = second compound 10 µM, first compound 0.316 µM
[34] = second compound 10 µM, first compound 1 µM
[35] = second compound 10 µM, first compound 3.16 µM
[36] = second compound 10 µM, first compound 10 µM
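Further: spheroids exposed to agents for one week before reading.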
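Wherever viability, T/C is given: 100% = DMSO vehicle control viability.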

Question: `C=CC(=O)N1CCN(c2nc(=O)n(-c3c(C)ccnc3C(C)C)c3nc(-c4c(O)cccc4F)c(F)cc23)C(C)C1` (stereo unspecified) + Cc1cnc(CNC(=O)c2c(=O)c3ccc(N4CCCN(C)CC4)nc3n3c2sc2ccccc23)cn1 was tested. Which IC50 (second compound 0.0316 µM) did it give?
Answer: > 10000 nM

Question: And the IC50 (second compound 0.1 µM)?
Answer: > 10000 nM

Question: And the IC50 (second compound 0.316 µM)?
Answer: < 31.6 nM

Question: And the IC50 (second compound 1 µM)?
Answer: < 31.6 nM

Question: And the IC50 (second compound 3.16 µM)?
Answer: < 31.6 nM

Question: And the IC50 (second compound 10 µM)?
Answer: < 31.6 nM

Question: What about the viability, T/C [1] of the same compound?
Answer: 81%

Question: What about the viability, T/C [2] of the same compound?
Answer: 70.8%

Question: What about the viability, T/C [3] of the same compound?
Answer: 84.4%

Question: And the viability, T/C [4]?
Answer: 79.2%

Question: And the viability, T/C [5]?
Answer: 77%

Question: And the viability, T/C [6]?
Answer: 72.2%

Question: And the viability, T/C [7]?
Answer: 60.3%

Question: And the viability, T/C [8]?
Answer: 55.3%

Question: And the viability, T/C [9]?
Answer: 56.1%

Question: What about the viability, T/C [10] of the same compound?
Answer: 57.3%

Question: What about the viability, T/C [11] of the same compound?
Answer: 61.5%

Question: What about the viability, T/C [12] of the same compound?
Answer: 52.9%

Question: And the viability, T/C [13]?
Answer: 36.6%

Question: And the viability, T/C [14]?
Answer: 32.1%

Question: And the viability, T/C [15]?
Answer: 33.7%

Question: What about the viability, T/C [16] of the same compound?
Answer: 46.9%

Question: And the viability, T/C [17]?
Answer: 49.1%

Question: And the viability, T/C [18]?
Answer: 32.1%

Question: And the viability, T/C [19]?
Answer: 21.5%

Question: And the viability, T/C [20]?
Answer: 20.2%

Question: And the viability, T/C [21]?
Answer: 19.7%

Question: What about the viability, T/C [22] of the same compound?
Answer: 26.2%

Question: And the viability, T/C [23]?
Answer: 21.7%

Question: And the viability, T/C [24]?
Answer: 19.3%

Question: And the viability, T/C [25]?
Answer: 22.8%

Question: What about the viability, T/C [26] of the same compound?
Answer: 17.6%

Question: What about the viability, T/C [27] of the same compound?
Answer: 19.9%

Question: And the viability, T/C [28]?
Answer: 20.5%

Question: And the viability, T/C [29]?
Answer: 25%

Question: And the viability, T/C [30]?
Answer: 18.4%

Question: What about the viability, T/C [31] of the same compound?
Answer: 18.4%

Question: What about the viability, T/C [32] of the same compound?
Answer: 18.5%

Question: What about the viability, T/C [33] of the same compound?
Answer: 20.9%

Question: What about the viability, T/C [34] of the same compound?
Answer: 18%

Question: What about the viability, T/C [35] of the same compound?
Answer: 13.7%

Question: And the viability, T/C [36]?
Answer: 15.8%

Question: What does the source list for `CC(C)n1c(=O)n(C)c2cnc3cc(F)c(-c4ccc(OCCCN5CCCCC5)nc4)cc3c21` + Cc1cnc(CNC(=O)c2c(=O)c3ccc(N4CCCN(C)CC4)nc3n3c2sc2ccccc23)cn1?
Answer: IC50 (second compound 0.0316 µM): > 10000 nM; IC50 (second compound 0.1 µM): > 10000 nM; IC50 (second compound 0.316 µM): < 31.6 nM; IC50 (second compound 1 µM): < 31.6 nM; IC50 (second compound 3.16 µM): < 31.6 nM; IC50 (second compound 10 µM): < 31.6 nM; viability, T/C [1]: 60.1%; viability, T/C [2]: 53.2%; viability, T/C [3]: 70.5%; viability, T/C [4]: 56%; viability, T/C [5]: 76.2%; viability, T/C [6]: 74.9%; viability, T/C [7]: 44.2%; viability, T/C [8]: 60.9%; viability, T/C [9]: 62.2%; viability, T/C [10]: 54.1%; viability, T/C [11]: 49.7%; viability, T/C [12]: 56.6%; viability, T/C [13]: 31.7%; viability, T/C [14]: 31.4%; viability, T/C [15]: 42.6%; viability, T/C [16]: 40.4%; viability, T/C [17]: 36.7%; viability, T/C [18]: 41.7%; viability, T/C [19]: 20%; viability, T/C [20]: 22.5%; viability, T/C [21]: 19.5%; viability, T/C [22]: 20%; viability, T/C [23]: 22.1%; viability, T/C [24]: 26.8%; viability, T/C [25]: 19.1%; viability, T/C [26]: 17.9%; viability, T/C [27]: 19.6%; viability, T/C [28]: 21.1%; viability, T/C [29]: 24.6%; viability, T/C [30]: 20.4%; viability, T/C [31]: 17.7%; viability, T/C [32]: 19.4%; viability, T/C [33]: 18.9%; viability, T/C [34]: 20%; viability, T/C [35]: 21.1%; viability, T/C [36]: 21.8%

Question: What does the source list for `CCc1c2c(nc3ccc(O)cc13)-c1cc3c(c(=O)n1C2)COC(=O)[C@]3(O)CC` + Cc1cnc(CNC(=O)c2c(=O)c3ccc(N4CCCN(C)CC4)nc3n3c2sc2ccccc23)cn1?
Answer: IC50 (second compound 0.0316 µM): 1.04 nM; IC50 (second compound 0.1 µM): < 0.999 nM; IC50 (second compound 0.316 µM): < 0.999 nM; IC50 (second compound 1 µM): < 0.999 nM; IC50 (second compound 3.16 µM): < 0.999 nM; IC50 (second compound 10 µM): < 0.999 nM; viability, T/C (second compound 0.0316 µM, first compound 0.000999 µM): 51.5%; viability, T/C (second compound 0.0316 µM, first compound 0.00316 µM): 15.3%; viability, T/C (second compound 0.0316 µM, first compound 0.00999 µM): 11.1%; viability, T/C [1]: 6.45%; viability, T/C (second compound 0.0316 µM, first compound 0.0999 µM): 6.82%; viability, T/C [3]: 2.28%; viability, T/C (second compound 0.1 µM, first compound 0.000999 µM): 32.7%; viability, T/C (second compound 0.1 µM, first compound 0.00316 µM): 18.6%; viability, T/C (second compound 0.1 µM, first compound 0.00999 µM): 12.7%; viability, T/C [7]: 6%; viability, T/C (second compound 0.1 µM, first compound 0.0999 µM): 4.68%; viability, T/C [9]: 1.38%; viability, T/C (second compound 0.316 µM, first compound 0.000999 µM): 25.2%; viability, T/C (second compound 0.316 µM, first compound 0.00316 µM): 15.8%; viability, T/C (second compound 0.316 µM, first compound 0.00999 µM): 12.8%; viability, T/C [13]: 5.79%; viability, T/C (second compound 0.316 µM, first compound 0.0999 µM): 4.66%; viability, T/C [15]: 0.47%; viability, T/C (second compound 1 µM, first compound 0.000999 µM): 17.1%; viability, T/C (second compound 1 µM, first compound 0.00316 µM): 13.5%; viability, T/C (second compound 1 µM, first compound 0.00999 µM): 7.77%; viability, T/C [19]: 1.4%; viability, T/C (second compound 1 µM, first compound 0.0999 µM): 0.12%; viability, T/C [21]: 0.1%; viability, T/C (second compound 3.16 µM, first compound 0.000999 µM): 13.7%; viability, T/C (second compound 3.16 µM, first compound 0.00316 µM): 9.61%; viability, T/C (second compound 3.16 µM, first compound 0.00999 µM): 3.83%; viability, T/C [25]: 0.1%; viability, T/C (second compound 3.16 µM, first compound 0.0999 µM): 0.1%; viability, T/C [27]: 0.14%; viability, T/C (second compound 10 µM, first compound 0.000999 µM): 12%; viability, T/C (second compound 10 µM, first compound 0.00316 µM): 9.68%; viability, T/C (second compound 10 µM, first compound 0.00999 µM): 3.64%; viability, T/C [31]: 0.13%; viability, T/C (second compound 10 µM, first compound 0.0999 µM): 0.17%; viability, T/C [33]: 0.21%
